{"source": "patent US20150191519A1", "about": "“VECTORS ENCODING A PARALYTIC PEPTIDE” (Soricimed Biopharma Inc., priority 2002, published 2015)", "key": {"[1]": {"test_system": "human ovarian carcinoma cell line (OV 2008)", "test": "calcium ion uptake by FURA-loaded ovarian carcinoma cells (fluorescence)", "type": "cell-based", "settings": "for calcium uptake by OV-2008 cell line: FURA fluorescence after calcium chloride 2.5 mM, calcium chloride 5.0 mM, FIG. 16", "experimental": "A human ovarian carcinoma cell line (OV 2008) was grown in MegaCell supplemented (Sigma Aldrich Chemical Co.) with 3% fetal calf serum (v/v), L-glutamine (584 mg/500 mL), and antibiotics penicillin and streptomycin (50 ug/ml) at 37° C. and in a humidified 5% carbon dioxide atmosphere. After confluence, the cells were harvested by incubation with Trypsin EDTA solution low in calcium and magnesium Dulbecco phosphate buffered saline (DPBS) at 37° C. and gentle shaking to detach them from the culture flask surface. After centrifugation and washing in the calcium-depleted medium, cells were incubated with 5 uM FURA 2 AM for 60 minutes to internalize this calcium sensitive fluorophore. After centrifuging and washing twice with DPBS, cells were allowed to de-esterify the FURA 2 AM for 30 minutes at 37° C., activating the calcium-sensitive FURA. Cells were then incubated with aliquots of a solution of pure soricidin. Fluorescent analysis used excitation at 340 nm and emission at a wavelength of 510 nm. After recording the baseline fluorescence of the cells, a bolus of calcium chloride (to final concentration of 2.5 mM) was delivered to the cell suspension and the fluorescence remeasured. After recording the fluorescence, the sample was treated with a bolus of potassium chloride (final concentration 20 mM) to activate any voltage gated calcium channels. Finally, the cells were treated with another bolus of […] raising the calcium ion concentration to 5.0 mM. The control situation was no treatment with soricidin peptide but with identical other treatments.\nThis transient receptor potential (TRP) calcium channel was blocked by soricidin. FIG. 16 illustrates"}, "insect nerve tissue": {"test_system": "insect nerve tissue", "test": "calcium ion uptake by excised insect nerve tissue (FURA fluorescence)", "type": "cell-based, flour beetle larvae (meal worms)", "settings": "FIG. 17", "experimental": "Central nerve pairs running along 5 body segments (including ganglia) were excised from flour beetle larvae (meal worms) and suspended in buffered invertebrate saline containing FURA 2 AM. After 60 minutes, the nerve tissue was removed from this solution, briefly washed in buffered saline and bathed with a solution of pure soricidin for 10 minutes. The nerve tissue was next immersed in a cuvette containing very low calcium ion concentration and a baseline fluorescence value recorded. A bolus of calcium chloride (to a final concentration of 5 mM) was added and, after 5 minutes, the fluorescence was determined. Finally, a bolus of potassium chloride was added to the preparation to a final concentration of 20 mM. The fluorescence was again determined. The control situation was exclusion of the soricidin, substituting instead a sham solution of buffered saline."}, "[2]": {"test": "isoelectric pH by capillary isoelectric focusing", "type": "physicochemical", "settings": "migration time 33.9 min; calibrated with pI standard proteins", "experimental": "The isoelectric pH of the shrew peptide soricidin was determined after calibration of the Beckmann-Coulter P/ACE MDQ Capillary Electrophoresis System with proteins of known isoelectric pH (2.75, 5.10, 5.90 and 9.45) and then co-isoelectric focusing of the standards with soricidin. […] The soricidin migration time (33.9 min) provided a pI of 4.20."}}}
{"substance": "soricidin: 54 amino acid paralytic peptide isolated from shrew (Blarina brevicauda) submaxilary saliva gland, sequence of FIG. 1A (DCSQDCAACSILARPAELNTETCILECEGKLSSNDTEGGLCKEFLHPSKVDLPR; listed as Blarina brevicauda)", "values": [{"measurement": "calcium uptake by OV-2008 cell line", "setting": "[1]; KCl 20 mM", "result": "inhibits calcium uptake"}, {"measurement": "calcium uptake by OV-2008 cell line", "setting": "[1]; KCl 20 mM, listed as Soricidin", "result": "strongly inhibits calcium uptake"}, {"measurement": "TRP calcium channel CaT1 (TRPV6) of ovarian carcinoma cells", "setting": "[1]; OV-2008", "result": "blocked"}, {"measurement": "small increase in calcium uptake in response to potassium ion challenge", "setting": "[1]; OV-2008, KCl 20 mM", "result": "eliminated"}, {"measurement": "dose dependence of inhibition of calcium uptake", "setting": "[1]; OV-2008, increases in amount caused no additional inhibition", "result": "saturated"}, {"measurement": "calcium uptake / calcium channels of insect neural tissue", "setting": "insect nerve tissue", "result": "effectively blocks the general and voltage-gated calcium channels"}, {"measurement": "calcium uptake / calcium channels of insect neural tissue", "setting": "insect nerve tissue; listed as Soricidin", "result": "inhibits calcium uptake"}, {"measurement": "increase in fluorescence (FURA/Calcium complex) less than in control", "setting": "insect nerve tissue; nerve bathed in pure soricidin 10 minutes, calcium chloride and KCl 20 mM challenge", "result": 92, "unit": "%"}, {"measurement": "isoelectric pH (pI)", "setting": "[2]", "result": 4.20}]}
